Molecules are shown by their SMILES.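 Values below derive from 48-hour exposures of cells grown in 96-well plates, with endpoints linearly interpolated between the two concentrations bracketing the appropriate inhibition level. TGI is the concentration that stops growth completely.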

This is an account of results in PubChem BioAssay (NCI).

Test systems include SW-620 colon; NCI/ADR-RES ovarian; MDA-N; HT29 colon; MALME-3M melanoma; KM12 colon; HS 578T breast; UACC-257 melanoma; RPMI-8226 leukemia; HOP-62 NSCLC; SK-MEL-2 melanoma; IGROV1 ovarian; SN12C renal; MOLT-4 leukemia; OVCAR-8 ovarian; BT-549 breast; SNB-75 CNS; A549 NSCLC; OVCAR-4 ovarian; U251 CNS.
Holding throughout (assay): NCI anticancer screen, dose series, 48 h

For `CC(=O)OCC1OC(N2C(c3ccccc3)=CC(c3ccccc3)C(C#N)=C2S)C(OC(C)=O)C(OC(C)=O)C1OC(C)=O` (stereo not given), the TGI was above 100 µM in the assay on SW-620 colon; above 100 µM with NCI/ADR-RES ovarian; 15.1 µM in the assay on MDA-N; above 82.5 µM in the assay with HT29 colon; 28.3 µM with MALME-3M melanoma; above 44.9 µM in the assay on KM12 colon. The TGI in the assay on HS 578T breast was 29.8 µM; with UACC-257 melanoma it was 16.5 µM; in the assay on RPMI-8226 leukemia, above 100 µM; in the assay on HOP-62 NSCLC, 17.9 µM; in the assay with SK-MEL-2 melanoma it was 16.8 µM; in the assay on IGROV1 ovarian, above 52.9 µM. In addition, the TGI was 15.7 µM in the assay on SN12C renal; above 100 µM in the assay on MOLT-4 leukemia; 24.2 µM in the assay with OVCAR-8 ovarian; 20.6 µM in the assay with BT-549 breast; 54.2 µM with SNB-75 CNS; above 46.4 µM with A549 NSCLC. Further, the TGI in the assay with OVCAR-4 ovarian was above 31.6 µM; in the assay on U251 CNS it was 16.2 µM.
With `Cc1cccc2c(N)c3cccc(C(=O)NCCCNCCN)c3nc12`, the TGI in the assay on SW-620 colon stood at 33.3 µM; in the assay with NCI/ADR-RES ovarian it was 77.9 µM; in the assay on MDA-N, 27 µM; in the assay with HT29 colon, 16.3 µM; in the assay on MALME-3M melanoma, 19.9 µM; in the assay on KM12 colon it was 19.5 µM. Further, the TGI with HS 578T breast is 3.71 µM; in the assay on UACC-257 melanoma it was 31.1 µM; in the assay on RPMI-8226 leukemia, 37.3 µM; with HOP-62 NSCLC it was 18.3 µM; with SK-MEL-2 melanoma, 34 µM; in the assay with IGROV1 ovarian, 28.9 µM. The TGI with SN12C renal turned out to be 2.25 µM; in the assay with MOLT-4 leukemia it was 17.4 µM; in the assay on OVCAR-8 ovarian, 23.6 µM; in the assay with BT-549 breast, 28 µM; in the assay on SNB-75 CNS it was 8.1 µM; in the assay on A549 NSCLC, 15 µM. The results for the TGI in the assay with OVCAR-4 ovarian and with U251 CNS were 10.5 µM and 9.31 µM, respectively.
For `Cc1ccc(S(=O)(=O)OC2C3OC(C)(C)OC3OC2C(c2cc(O)c3c(c2O)C(=O)c2ccccc2C3=O)c2cc(O)c3c(c2O)C(=O)c2ccccc2C3=O)cc1` (stereo not given), the TGI in the assay on SW-620 colon, in the assay with NCI/ADR-RES ovarian, in the assay with MDA-N, with HT29 colon, in the assay on MALME-3M melanoma and in the assay on KM12 colon was above 10 µM in each case. For the same molecule, the TGI with HS 578T breast, in the assay with UACC-257 melanoma, in the assay with RPMI-8226 leukemia, in the assay on HOP-62 NSCLC, in the assay on SK-MEL-2 melanoma and in the assay on IGROV1 ovarian was above 10 µM throughout. The TGI in the assay with SN12C renal, with MOLT-4 leukemia, in the assay with OVCAR-8 ovarian, in the assay on BT-549 breast, in the assay with SNB-75 CNS and in the assay with A549 NSCLC was above 10 µM in each case. Also, the TGI with OVCAR-4 ovarian and in the assay on U251 CNS was above 10 µM throughout.
Regarding `COc1ccccc1N1C(=O)/C(=C\c2cccc(Oc3ccccc3)c2)SC1c1ccccc1` (stereo not given), the TGI in the assay with SW-620 colon was 71 µM; in the assay with NCI/ADR-RES ovarian, above 100 µM; in the assay with MDA-N, 64.6 µM; in the assay on HT29 colon, above 100 µM; in the assay on MALME-3M melanoma, above 100 µM; in the assay on KM12 colon, above 100 µM. The TGI with HS 578T breast, in the assay with UACC-257 melanoma, with RPMI-8226 leukemia, with HOP-62 NSCLC, with SK-MEL-2 melanoma and in the assay with IGROV1 ovarian was above 100 µM throughout. Also, the TGI in the assay on SN12C renal, with MOLT-4 leukemia, in the assay with OVCAR-8 ovarian, with BT-549 breast, with SNB-75 CNS and in the assay on A549 NSCLC was above 100 µM in each case. In addition, the TGI in the assay with OVCAR-4 ovarian and with U251 CNS was above 100 µM each time.
For the molecule `CCCCn1c(C)c(C(=O)OCC)c2cc(OCc3ccc(C(=O)Nn4c(C)ccc4C)cc3)c(Br)cc21`, the TGI in the assay on SW-620 colon, with NCI/ADR-RES ovarian, in the assay with MDA-N, in the assay on HT29 colon, in the assay with MALME-3M melanoma and in the assay on KM12 colon was above 100 µM throughout. In addition, the TGI in the assay with HS 578T breast, in the assay with UACC-257 melanoma, in the assay with RPMI-8226 leukemia, with HOP-62 NSCLC, in the assay with SK-MEL-2 melanoma and in the assay with IGROV1 ovarian was above 100 µM each time. The TGI with SN12C renal, in the assay on MOLT-4 leukemia, in the assay with OVCAR-8 ovarian, in the assay with BT-549 breast, with SNB-75 CNS and in the assay on A549 NSCLC was above 100 µM throughout. The TGI in the assay with OVCAR-4 ovarian and in the assay with U251 CNS was above 100 µM throughout.
Take `Cc1c(Cc2ccccc2)n(COCCCO)c(=O)[nH]c1=O`: the TGI with SW-620 colon, in the assay with NCI/ADR-RES ovarian, with MDA-N, with HT29 colon, with MALME-3M melanoma and with KM12 colon was above 100 µM throughout. Moreover, the TGI with HS 578T breast, with UACC-257 melanoma, in the assay with RPMI-8226 leukemia, in the assay with HOP-62 NSCLC, in the assay on SK-MEL-2 melanoma and with IGROV1 ovarian was above 100 µM each time. Also, the TGI in the assay with SN12C renal, in the assay on MOLT-4 leukemia, in the assay on OVCAR-8 ovarian, in the assay on BT-549 breast, in the assay with SNB-75 CNS and in the assay on A549 NSCLC was above 100 µM in each case. In addition, the TGI with OVCAR-4 ovarian and in the assay on U251 CNS was above 100 µM throughout.
